According to US9457044B2, “Methods and compositions for wound healing” (CoDa Therapeutics, Inc., priority 2006, dated 2016):

Assays:
[1] = tested on: hydroxyproline; experiment: Hydroxyproline analysis of collagen content of wound area; set-up: species or system mice; conditions: mouse, in vivo
Experimental: Male, 8 week old, ICR mice were used in the following experiments. All the mice were kept under specific pathogen-free conditions in an environmentally controlled clean room at University College London and all the experiments were carried out under UK Home Office regulations. Mice were anaesthetized by halothane inhalation. Four full-thickness excisional wounds of 6 mm diameter were made on the shaved back on either side of the dorsal midline with a 6 mm biopsy punch (Kai Industries). To each pair of wounds a single topical application of 50 μl of 1 μM Cx43 as ODN (SEQ. ID No. 2) (Sigma-Genosys) in 30% Pluronic F-127 gel (Sigma-Aldrich), chilled on ice, was made to one wound, and an identical application of 1 μM sense control sODNs was made to the other. […] R. and Becker, D. L. (2003). […] Each wound region was digitally photographed at the indicated time intervals, and the areas of the wounds were calculated. All wound areas were expressed as percentages of the initial wound areas. […]
The collagen content of the wound area was assessed by determining the amount of hydroxyproline (HP), a major component of collagen. […] Concentrations of protein were measured using a BCA™ Protein Assay Kit (PIERCE Biotechnology Inc.), and the amounts of HP were determined with Sircol™ Soluble Collagen Assay Kit (Biocolor Ltd.). The data were expressed as amounts of HP/total protein (ng/μg) for each sample.

[2] = tested on: skin wounds; conditions: Qiu 2003; Coutinho 2005; cited from earlier work
[3] = tested on: blood vessels; experiment: Angiogenesis at wound sites (von Willebrand factor, CD31, isolectinB staining); format: in vivo, mice
Experimental: (§1) Male, 8 week old, ICR mice were used in the following experiments. All the mice were kept under specific pathogen-free conditions in an environmentally controlled clean room at University College London and all the experiments were carried out under UK Home Office regulations. Mice were anaesthetized by halothane inhalation. Four full-thickness excisional wounds of 6 mm diameter were made on the shaved back on either side of the dorsal midline with a 6 mm biopsy punch (Kai Industries). To each pair of wounds a single topical application of 50 μl of 1 μM Cx43 as ODN (SEQ. ID No. 2) (Sigma-Genosys) in 30% Pluronic F-127 gel (Sigma-Aldrich), chilled on ice, was made to one wound, and an identical application of 1 μM sense control sODNs was made to the other. […] R. and Becker, D. L. (2003). Targeting connexin 43 expression accelerates the rate of wound repair. Curr Biol 13, 1697-703). Each wound region was digitally photographed at the indicated time intervals, and the areas of the wounds were calculated. All wound areas were expressed as percentages of the initial wound areas. In some series of experiments, wounds and their surrounding area, including the scab and epithelial margins, were harvested with an 8 mm biopsy punch (Kai Industries) at the indicated time intervals after mice were killed with an overdose of chloroform. A minimum of eight mice were used for each time point examined.
Wound tissues were fixed in 4% formaldehyde buffered with PBS, and embedded in paraffin. Sections ([…] thick) were subjected to hematoxylin and eosin staining or immunostaining. Measurement of granulation tissue area in H&E was performed using Improvision Openlab™ 4.0.2 software (Improvision). For immunohistochemistry, deparaffinized sections were treated with endogenous peroxidase blocking reagent (Dako Cytomation A/S) and proteinase K (Dako Cytomation A/S) for 20 minutes and 6 minutes at room temperature, respectively. They were then incubated with rabbit antimyeloperoxidase (MPO) polyclonal antibody (NeoMarkers) diluted 1:200, rat anti-mouse F4/80 monoclonal antibody (mAb) (Abcom Limited) diluted 1:400 or rat antimouse CD31 (platelet endothelial cell adhesion molecule 1, PECAM-1) mAb (PharMingen) or rabbit anti-mouse TGF-β1 polyclonal antibody (Santa Cruz Biotechnology, Inc) both diluted 1:200 overnight at 4° C. after blocking with 15% skimmed milk for 1 hour at room temperature. In addition, some sections were reacted with phalloidin-tetramethylrhodamine B isothiocyanate (Sigma-Aldrich) diluted 1:500 for 1 hour at room temperature. The antibodies were appropriately diluted in Antibody Diluent with Background Reducing Components (Dako Cytomation A/S). The sections reacted with anti-MPO antibody and anti TGF-β1 antibody were stained with EnVision+™ (Dako Cytomation A/S) to enhance the signal, according to the manufacturer's instructions. The sections that had been reacted with anti-F4/80 and anti-CD31 antibodies were incubated with biotinylated rabbit anti-rat immunoglobulin (Dako Cytomation A/S) diluted 1:200 for 1 hour at 37° C. The signal was then enhanced using the Catalyzed Signal Amplification System® (Dako Cytomation A/S) according to the manufacturer's instructions. Thereafter, counterstaining was performed with methyl green (Dako Cytomation A/S) followed by MPO, TGF-β1, F4/80, and CD31 staining or 4′,6-diamidino-2-phenylindole (DAPI) followed by phalloidin staining. […]

[4] = tested on: granulation tissue; experiment: Granulation tissue area (H&E); format: in vivo, mice
Experimental: as §1, with “examined. […]” for “examined.”

[5] = tested on: apoptotic cells; experiment: TUNEL staining of granulation tissue; format: in vivo, mice; conditions: 5, 7 and 10 days after wounding
Experimental: Male, 8 week old, ICR mice were used in the following experiments. All the mice were kept under specific pathogen-free conditions in an environmentally controlled clean room at University College London and all the experiments were carried out under UK Home Office regulations. Mice were anaesthetized by halothane inhalation. Four full-thickness excisional wounds of 6 mm diameter were made on the shaved back on either side of the dorsal midline with a 6 mm biopsy punch (Kai Industries). To each pair of wounds a single topical application of 50 μl of 1 μM Cx43 as ODN (SEQ. ID No. 2) (Sigma-Genosys) in 30% Pluronic F-127 gel (Sigma-Aldrich), chilled on ice, was made to one wound, and an identical application of 1 μM sense control sODNs was made to the other. […] R. and Becker, D. L. (2003). Targeting connexin 43 expression accelerates the rate of wound repair. Curr Biol 13, 1697-703). Each wound region was digitally photographed at the indicated time intervals, and the areas of the wounds were calculated. All wound areas were expressed as percentages of the initial wound areas. […]
Wound tissues were fixed in 4% formaldehyde buffered with PBS, and embedded in paraffin and sectioned. […] TUNEL stained section were imaged and positive cells were counted in the granulation tissue in three random fields, in the two sides and center of each wound (each field was 0.332 mm2).

[6] = tested on: skin wounds; experiment: Full-thickness excisional skin wound healing (wound area, re-epithelialization); format: in vivo, mice
Experimental: Male, 8 week old, ICR mice were used in the following experiments. All the mice were kept under specific pathogen-free conditions in an environmentally controlled clean room at University College London and all the experiments were carried out under UK Home Office regulations. Mice were anaesthetized by halothane inhalation. Four full-thickness excisional wounds of 6 mm diameter were made on the shaved back on either side of the dorsal midline with a 6 mm biopsy punch (Kai Industries). To each pair of wounds a single topical application of 50 μl of 1 μM Cx43 as ODN (SEQ. ID No. 2) (Sigma-Genosys) in 30% Pluronic F-127 gel (Sigma-Aldrich), chilled on ice, was made to one wound, and an identical application of 1 μM sense control sODNs was made to the other. […] Targeting connexin 43 expression accelerates the rate of wound repair. Curr Biol 13, 1697-703). Each wound region was digitally photographed at the indicated time intervals, and the areas of the wounds were calculated. All wound areas were expressed as percentages of the initial wound areas. In some series of experiments, wounds and their surrounding area, including the scab and epithelial margins, were harvested with an 8 mm biopsy punch (Kai Industries) at the indicated time intervals after mice were killed with an overdose of chloroform. A minimum of eight mice were used for each time point examined.

GTAATTGCGGCAGGAGGAATTGTTTCTGTC (antisense GTAATTGCGGCAGGAGGAATTGTTTCTGTC; in Pluronic F-127 gel, further chemistry not given here) [Cx43 asODN]
hydroxyproline in treated wounds [1]: increased | healing of skin wound and burn injury sites versus control sODN [2]: significantly accelerated healing | blood vessel staining in granulation tissue ([3]; 5 days, none in control wounds): staining was seen in the edges of the granulation tissue of all | quantified blood vessel staining, treated versus controls ([3]; 7 days P=0.0019, 10 days P=0.015): significantly more staining in controls | size of blood vessels and extent of staining, treated versus control ([3]; 14 days): very similar | wounds with fine blood vessels throughout the entire granulation tissue ([3]; day 7): five out of six | enhancement of the rate of wound maturation ([3]; mouse, in vivo): 2 to 3 days | granulation tissue area versus untreated tissue ([4]; day 5, difference not significant): slightly smaller | granulation tissue area versus control sODN treated wounds ([4]; days 7, 10 and 14 after wounding): significantly (*P<0.05; **P<0.01) smaller | numbers of TUNEL positive cells, control versus treated [5]: no significant differences | macroscopic wound appearance and closure versus control wounds ([6]; days 1 and 2): significantly smaller, drier, less inflamed and closed faster | re-epithelialisation versus control ODN treated wounds ([6]; excisional and incisional wounds): re-epithelialise more rapidly
